Square brackets hold non-standard residues; d marks the D form. Peptide text beside a SMILES is read from it. MeBmt = C/C=C/C[C@@H](C)[C@@H](O)[C@H](NC)C(=O)O; NEtVal = CCN[C@H](C(=O)O)C(C)C; NMeL = CN[C@@H](CC(C)C)C(=O)O; NMeV = CN[C@H](C(=O)O)C(C)C; dHiv = CC(C)[C@@H](O)C(=O)O; NMeA = CN[C@@H](C)C(=O)O; dNMeA = CN[C@H](C)C(=O)O; Abu = CC[C@H](N)C(=O)O

The target in data set [1] is T1, sodium-taurocholate cotransporting polypeptide (NTCP) (Homo sapiens, UniProt Q14973).
T1 sequence (Q14973 1-349): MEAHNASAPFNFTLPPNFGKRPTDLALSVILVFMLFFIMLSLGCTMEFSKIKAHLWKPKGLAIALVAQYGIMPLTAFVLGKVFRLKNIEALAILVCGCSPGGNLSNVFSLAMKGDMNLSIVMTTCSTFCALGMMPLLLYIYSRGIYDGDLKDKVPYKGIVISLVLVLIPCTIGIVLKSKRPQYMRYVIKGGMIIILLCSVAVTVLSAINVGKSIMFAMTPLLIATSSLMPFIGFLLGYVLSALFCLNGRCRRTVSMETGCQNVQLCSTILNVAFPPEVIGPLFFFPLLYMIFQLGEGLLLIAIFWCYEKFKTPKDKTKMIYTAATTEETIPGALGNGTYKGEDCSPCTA
The data set is described as follows: NTCP inhibition, taurocholate uptake in CHO cells. Format: in vitro ADME.

Data set [2] in a line: Cytostatic/cytotoxic effect, MTT (MTS) assay in Huh 9-13 cells. The data set is classed as cell-based. Particulars: human, Huh 9-13 cells containing the HCV genotype 1b Con1 replicon, metabolic activity reduced to 50% of untreated cells. An excerpt:
Assays used Huh 9-13 containing the hepatitis C virus genotype 1b Con1 replicon (Lohmann et al. 2001. J. Virol. 75:1437-1449; and Lohmann et al. 1999. Science. 285:110-113). Cells were sub-cultured in cell growth medium DMEM supplemented with 10% FCS, 1% non-essential amino acids, 1% penicillin/streptomycin and 2% Geneticin (Invitrogen) at a ratio of 1:4-1:5 and grown for 3-4 days in 75 cm^2 tissue culture flasks (Techno Plastic Products), were harvested and seeded in assay medium (DMEM, 10% FCS, 1% non-essential amino acids, 1% penicillin/streptomycin) at a density of 5 000 cells/well (100 μl/well) in 96-well tissue culture microtiter plates (Falcon, Beckton Dickinson) for evaluation of cytostatic/cytotoxic and antiviral effect. The microtiter plates were incubated overnight (37° C., 5% CO2, 95-99% relative humidity), yielding a non-confluent cell monolayer.
Cell density and cytostatic effects were estimated in parallel cultures in regular 96-well plates (Beckton-Dickinson) using the MTT assay (CellTiter 96 AQueous Non-Radioactive Cell Proliferation Assay, Promega). In this assay, 3-(4,5-dimethyl-thiazol-2-yl)-5-(3-carboxymethoxy-phenyl)-2-(4-sulfophenyl)-2H-tetrazolium (MTS) is bioreduced to a formazan that is quantified at 498 nm in a plate reader. Formazan production is directly correlated with number of life cells. Absorbance was measured at a wavelength of 498 nm (Safire^2, Tecan) and optical densities (OD values) were converted to percentage of untreated controls.
The compounds were dissolved in DMSO at a concentration of 4 mmole/L. Stock solutions were immediately used to set up the experiments. The compounds were tested at 24 different concentrations ranging from 0.0001 μmole/L to 100 μmole/L. The highest concentration of DMSO in the assay was determined to be 2.5% (at 100 μM final concentration of the compound). During the assay setup, the DMSO percentage decreased concomitantly with decrease in concentration of the compound.
The EC50 (value derived from the dose-response curve) represents the concentration at which 50% inhibition of viral replication is observed. The CC50 (value derived from the dose-response curve) represents the concentration at which the metabolic activity of the cells is reduced to 50% of the metabolic activity of untreated cells.
Results from these experiments permitted calculation of EC50±SD (standard deviation or Std. Dev.), which is the effective concentration required to inhibit HCV replicon replication by 50%, and of CC50±SD (whenever possible), which is the concentration required that inhibits the proliferation of exponentially growing cells by 50%. EC50 and CC50±SD values were calculated respectively as the median of all the EC50, or CC50 values derived from the 3 individual dose-response curves. The selectivity index (SI), indicative of the therapeutic window of the compound was calculated as the ratio between CC50 and EC50.
For orientation: In antiviral work, replicon cells carry a viral genome segment that copies itself.

For data set [3], the system named is hepatitis C virus genotype 1b Con1 replicon. As to the kind of experiment: HCV replicon assay, replicon RNA by RT-qPCR in Huh 9-13 cells. The data set is classed as cell-based. Particulars: 50% inhibition of HCV replicon replication, 3 dose-response curves.
Description: For the evaluation of antiviral effects, assay medium was aspirated and the plates with dry monolayer were stored at −80° C. awaiting extraction. Following thawing of the plates at room temperature, the cell monolayer was lysed with 100 μl of cell-to-cDNA lysis buffer (Invitrogen). Lysis of the cells was allowed to proceed for 10 min at room temperature after which all liquid was transferred to a PCR plate (Axygen). The PCR plate was incubated for 15 min at 75° C. […] The lysate was diluted 1:2 with RNase/DNase-free water, after which 5 μl was transferred to the real-time PCR plate (Applied Biosystems).
Replicon RNA content was quantified using a real-time quantitative one-step RT-PCR method (RT-qPCR): Low Rox One-Step RT-qPCR master mix, Abgene). […] The fluorogenic probe was 5′-[sequence]-3′. The analysis of the samples were performed using a SDS7500F (Applied Biosystems, standard thermocycling profile: 30 min at 48° C., 10 min at 95° C., 40 cycles of 15 sec at 95° C. and 1 min at 60° C.) after which replicon RNA quantities were converted to percentage of untreated controls.
Data set [4] addresses organic anion transporting polypeptide 1B1 (OATP1B1) (Homo sapiens, UniProt Q9Y6L6). The protocol: (§1) To determine whether the cycloundecadepsipeptide compounds of the present invention interact with hepatic transporters, experiments were carried out that compared the concentration-dependent inhibition towards the multidrug resistance associated protein 2 (MRP2), the organic anion transporting polypeptide 1B1 (OATP1B1), the bile salt export pump (BSEP) and the sodium-taurocholate cotransporting polypeptide (NTCP). These transporters are involved in the hepatobiliary circulation of endogenous compounds such as bile salts or bilirubin (for a review, see C. Pauli-Magnus et al, J. Hepatology, 2005, 43:342-357). Some of them also contribute to the elimination of xenobiotics.
OATP1B1 and NTCP assays were performed with Chinese hamster ovary (CHO) cells expressing these human uptake transporters. The amount of the transported probe substrate (estrone-3-sulfate and taurocholate for OATP1B1 and NTCP, respectively) was determined by liquid scintillation or fluorescent photometry after cell lysis.
(§2) The IC50 (defined as the concentration required for inhibiting the transport of the probe substrate by 50%, half maximal inhibitory concentration) of the compounds was derived from the concentration-response curve and compared to the IC50 of Debio 025 (IC50 ratio expressed as “fold Debio 025” in the tables).

Data set [5] relates to Concanavalin-A-induced T-cell proliferation. As to the kind of experiment: Concanavalin-A-induced T-cell proliferation assay (immunosuppression). The data set is classed as cell-based. The note with it: inhibition of Concanavalin-A-induced T-cell proliferation. The protocol:
To determine whether the cycloundecadepsipepide compounds of the present invention have a non-immunosuppression activity, experiments were carried out that compared the dose-dependent inhibition of Concanavalin-A-induced T-cell proliferation (see Table 2).
The method of the assays were performed as described by Dayton et al. (1992. Mol. Pharmacol. 41. 671-676) and Mishell et al. (1980. Cell proliferation in selected methods in cellular immunology, V, XXIX, W.H. Freeman Co., San Francisco, Calif. 153-160).

Data set [6] has as its target multidrug resistance associated protein 2 (MRP2) (Homo sapiens, UniProt Q92887). The protocol: as §1
(§3) MRP2 and BSEP were expressed by SOLVO Biotechnology in Spodoptera frugiperda (Sf9) ovarian cells, by infecting the insect cells with a recombinant baculovirus. The inhibition of the transport of the radioactive probe substrates (estradiol-17-beta-glucuronide and taurocholate for MRP2 and BSEP, respectively) into inside-out membrane vesicles, containing the transporter, was measured by scintillation counting.
as §2

Data set [7] concerns the target bile salt export pump (BSEP) (Homo sapiens, UniProt O95342). The note with it: for BSEP fold Debio 025: IC50 ratio compared to Debio 025. The procedure: as §1, §3, §2
Setting [8] is: IC50 ratio compared to Debio 025.

Chain of bile salt export pump (BSEP) (O95342 whole entry): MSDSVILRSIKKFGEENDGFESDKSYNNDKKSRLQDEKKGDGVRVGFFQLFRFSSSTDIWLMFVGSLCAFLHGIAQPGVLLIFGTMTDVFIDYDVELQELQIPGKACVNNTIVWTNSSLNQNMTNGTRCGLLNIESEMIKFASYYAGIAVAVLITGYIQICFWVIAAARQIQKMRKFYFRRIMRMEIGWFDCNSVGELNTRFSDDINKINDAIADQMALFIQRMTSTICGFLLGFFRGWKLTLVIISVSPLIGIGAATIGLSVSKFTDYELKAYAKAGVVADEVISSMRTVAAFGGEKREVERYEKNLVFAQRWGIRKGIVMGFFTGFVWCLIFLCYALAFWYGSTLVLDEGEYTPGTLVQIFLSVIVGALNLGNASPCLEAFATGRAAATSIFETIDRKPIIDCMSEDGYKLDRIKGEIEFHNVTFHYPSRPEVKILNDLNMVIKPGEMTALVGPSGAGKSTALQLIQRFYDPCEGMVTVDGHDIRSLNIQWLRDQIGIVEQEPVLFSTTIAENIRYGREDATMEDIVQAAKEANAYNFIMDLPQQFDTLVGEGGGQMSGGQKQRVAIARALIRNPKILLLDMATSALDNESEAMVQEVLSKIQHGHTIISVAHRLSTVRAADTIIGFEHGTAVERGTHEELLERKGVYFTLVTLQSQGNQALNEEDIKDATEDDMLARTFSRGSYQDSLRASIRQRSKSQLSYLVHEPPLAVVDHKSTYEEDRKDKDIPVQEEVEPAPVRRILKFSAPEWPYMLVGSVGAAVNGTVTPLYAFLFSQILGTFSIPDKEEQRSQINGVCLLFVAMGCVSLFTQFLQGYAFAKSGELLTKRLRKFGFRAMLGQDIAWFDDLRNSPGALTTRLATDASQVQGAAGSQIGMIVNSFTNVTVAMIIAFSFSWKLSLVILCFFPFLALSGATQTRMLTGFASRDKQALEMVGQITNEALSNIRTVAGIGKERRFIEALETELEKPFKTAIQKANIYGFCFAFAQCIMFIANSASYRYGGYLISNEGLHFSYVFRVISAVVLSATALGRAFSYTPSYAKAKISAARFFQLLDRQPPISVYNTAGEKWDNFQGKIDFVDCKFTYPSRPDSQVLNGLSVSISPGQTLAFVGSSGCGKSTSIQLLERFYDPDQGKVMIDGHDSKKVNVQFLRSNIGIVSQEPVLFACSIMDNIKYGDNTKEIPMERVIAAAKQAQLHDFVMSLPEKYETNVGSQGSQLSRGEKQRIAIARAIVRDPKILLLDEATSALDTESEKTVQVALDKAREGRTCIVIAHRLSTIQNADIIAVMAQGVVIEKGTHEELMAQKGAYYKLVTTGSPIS
Chain of organic anion transporting polypeptide 1B1 (OATP1B1) (Q9Y6L6 whole entry): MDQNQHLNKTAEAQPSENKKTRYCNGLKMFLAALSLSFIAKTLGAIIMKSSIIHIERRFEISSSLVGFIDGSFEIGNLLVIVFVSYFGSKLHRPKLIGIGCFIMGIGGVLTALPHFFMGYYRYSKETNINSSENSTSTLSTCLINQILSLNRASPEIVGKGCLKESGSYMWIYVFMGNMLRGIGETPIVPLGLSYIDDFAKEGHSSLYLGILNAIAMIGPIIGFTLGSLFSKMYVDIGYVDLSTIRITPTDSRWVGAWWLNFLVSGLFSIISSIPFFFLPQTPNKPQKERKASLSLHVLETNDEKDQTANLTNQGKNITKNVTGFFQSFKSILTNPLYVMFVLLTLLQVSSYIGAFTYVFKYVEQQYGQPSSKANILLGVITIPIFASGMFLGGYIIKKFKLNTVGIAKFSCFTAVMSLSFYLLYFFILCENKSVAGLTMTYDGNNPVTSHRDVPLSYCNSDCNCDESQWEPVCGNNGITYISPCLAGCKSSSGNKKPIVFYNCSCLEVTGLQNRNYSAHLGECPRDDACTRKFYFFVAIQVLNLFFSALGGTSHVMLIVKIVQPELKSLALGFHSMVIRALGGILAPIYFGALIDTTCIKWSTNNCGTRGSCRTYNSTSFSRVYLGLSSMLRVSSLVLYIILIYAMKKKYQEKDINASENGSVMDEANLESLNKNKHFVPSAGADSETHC
Chain of multidrug resistance associated protein 2 (MRP2) (Q92887 whole entry): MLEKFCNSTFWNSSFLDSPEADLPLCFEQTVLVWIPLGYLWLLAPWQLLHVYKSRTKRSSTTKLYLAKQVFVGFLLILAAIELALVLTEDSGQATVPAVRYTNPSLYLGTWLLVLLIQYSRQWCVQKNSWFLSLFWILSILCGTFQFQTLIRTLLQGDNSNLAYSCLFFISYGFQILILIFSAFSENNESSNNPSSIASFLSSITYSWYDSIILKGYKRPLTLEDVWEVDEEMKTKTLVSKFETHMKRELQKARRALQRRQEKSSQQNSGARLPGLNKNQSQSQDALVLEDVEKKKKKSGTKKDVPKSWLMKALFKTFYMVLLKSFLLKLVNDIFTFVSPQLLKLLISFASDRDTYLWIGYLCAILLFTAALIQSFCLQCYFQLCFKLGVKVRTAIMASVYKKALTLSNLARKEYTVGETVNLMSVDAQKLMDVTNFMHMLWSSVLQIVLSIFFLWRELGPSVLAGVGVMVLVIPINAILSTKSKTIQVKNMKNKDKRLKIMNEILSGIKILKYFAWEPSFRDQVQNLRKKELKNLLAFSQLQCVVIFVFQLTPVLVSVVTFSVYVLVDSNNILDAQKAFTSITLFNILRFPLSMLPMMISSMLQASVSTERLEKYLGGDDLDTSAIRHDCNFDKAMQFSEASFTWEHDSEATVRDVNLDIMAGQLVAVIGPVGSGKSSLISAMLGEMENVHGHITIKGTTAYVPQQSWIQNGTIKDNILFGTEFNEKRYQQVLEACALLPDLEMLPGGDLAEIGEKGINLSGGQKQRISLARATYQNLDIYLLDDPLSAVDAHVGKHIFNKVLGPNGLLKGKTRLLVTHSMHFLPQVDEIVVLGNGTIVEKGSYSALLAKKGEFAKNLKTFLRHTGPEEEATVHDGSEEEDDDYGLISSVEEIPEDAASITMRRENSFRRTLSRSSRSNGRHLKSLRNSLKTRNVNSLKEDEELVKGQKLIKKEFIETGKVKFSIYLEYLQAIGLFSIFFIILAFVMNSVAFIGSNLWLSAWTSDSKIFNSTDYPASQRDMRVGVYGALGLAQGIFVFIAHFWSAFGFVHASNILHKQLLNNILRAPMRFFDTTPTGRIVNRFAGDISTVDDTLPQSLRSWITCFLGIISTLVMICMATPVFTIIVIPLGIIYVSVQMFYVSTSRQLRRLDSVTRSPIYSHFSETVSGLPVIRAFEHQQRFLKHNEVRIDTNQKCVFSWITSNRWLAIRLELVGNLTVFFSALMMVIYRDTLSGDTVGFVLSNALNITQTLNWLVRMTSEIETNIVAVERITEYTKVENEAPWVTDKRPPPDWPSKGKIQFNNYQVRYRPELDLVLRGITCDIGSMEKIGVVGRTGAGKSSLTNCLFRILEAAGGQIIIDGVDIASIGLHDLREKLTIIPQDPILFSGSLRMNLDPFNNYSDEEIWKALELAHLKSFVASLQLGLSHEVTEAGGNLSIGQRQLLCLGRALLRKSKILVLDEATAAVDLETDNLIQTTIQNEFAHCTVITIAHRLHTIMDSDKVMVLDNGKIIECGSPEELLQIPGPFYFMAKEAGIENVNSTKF

Regarding `C/C=C/C[C@@H](C)[C@@H](O)[C@H]1C(=O)N[C@@H](CC)C(=O)N(C)[C@H](C)C(=O)N(C)[C@@H](C(C)C)C(=O)N[C@@H](C(C)C)C(=O)N(C)[C@@H](C)C(=O)N[C@@H](C)C(=O)O[C@H](C(C)C)C(=O)N(C)[C@@H](CC(C)C)C(=O)N[C@@H](CC(C)C)C(=O)N(C)[C@@H](C(C)C)C(=O)N1C` [(Ie), cyclo-(MeBmt-Abu-D-MeAla-MeVal-Val-MeAla-Ala-D-Hiv-MeLeu-Leu-MeVal)] (cyclo(A[dHiv][NMeL]L[NMeV][MeBmt][Abu][dNMeA][NMeV]V[NMeA])), the “NTCP fold Debio 025” value in data set [1] (setting [8]) is listed as 0.12. Besides, the IC50 in data set [1] (probe taurocholate, CHO cells) amounted to 26000 nM; in data set [4], 580 nM; in data set [5] it was 2000 nM; in data set [6] it was 20000 nM; in data set [7], 600 nM. The same compound registered a CC50 in data set [2] of 8300 nM. In data set [3], this compound registered an EC50 of 70 nM. Moreover, in data set [4], the “OATP1B fold Debio 025” value is 0.72. Further, the “MRP2 fold Debio 025” value in data set [6] (setting [8]) is recorded as 0.73. In data set [7], the “BSEP fold Debio 025” value was found to be 0.40.

As for `C/C=C/C[C@@H](C)[C@@H](O)[C@H]1C(=O)N[C@@H](C(C)C)C(=O)N(C)[C@H](C)C(=O)N(C)[C@@H](C(C)C)C(=O)N[C@@H](CC(C)C)C(=O)N(C)[C@@H](CC(C)C)C(=O)NCC(=O)O[C@H](C(C)C)C(=O)N(C)[C@@H](CC(C)C)C(=O)N[C@@H](CC(C)C)C(=O)N(C)[C@@H](C(C)C)C(=O)N1C` [(If), cyclo-(MeBmt-Val-D-MeAla-MeVal-Leu-MeLeu-Gly-D-Hiv-MeLeu-Leu-MeVal)] (cyclo(G[dHiv][NMeL]L[NMeV][MeBmt]V[dNMeA][NMeV]L[NMeL])), the “NTCP IC50” value in data set [1] (probe taurocholate, CHO cells) is “n.i”. In data set [2], this compound displayed a CC50 of 81800 nM. Also, the EC50 in data set [3] was found to be 25 nM. Besides, in data set [4], the IC50 was determined as 15000 nM and the “OATP1B fold Debio 025” value is listed as 0.03. Besides, the IC50 in data set [5] was determined as 7720 nM. For the same compound, the “MRP2 IC50” value in data set [6] was “n.i”. Also, in data set [7], the IC50 worked out at 480 nM and the “BSEP fold Debio 025” value stood at 0.50.

Take `C/C=C/C[C@@H](C)[C@@H](O)[C@H]1C(=O)N[C@@H](C(C)C)C(=O)N(C)[C@H](C)C(=O)N(CC)[C@@H](C(C)C)C(=O)N[C@@H](CC(C)C)C(=O)N(C)[C@@H](CC(C)C)C(=O)N[C@@H](C)C(=O)O[C@H](C(C)C)C(=O)N(C)[C@@H](CC(C)C)C(=O)N[C@@H](CC(C)C)C(=O)N(C)[C@@H](C(C)C)C(=O)N1C` [(Ih), cyclo-(MeBmt-Val-D-MeAla-EtVal-Leu-MeLeu-Ala-D-Hiv-MeLeu-Leu-MeVal)] (cyclo(A[dHiv][NMeL]L[NMeV][MeBmt]V[dNMeA][NEtVal]L[NMeL])): the “NTCP IC50” value in data set [1] (probe taurocholate, CHO cells) is given as “n.i”. In data set [2], this compound came in with a CC50 of 20500 nM. In data set [3], this compound showed an EC50 of 22 nM. Moreover, in data set [4], the IC50 was determined as 12000 nM and the “OATP1B fold Debio 025” value was determined as 0.04. The IC50 in data set [5] was 1740 nM. Further, in data set [6], the “MRP2 IC50” value was “n.i”. In addition, in data set [7], the IC50 was found to be 300 nM and the “BSEP fold Debio 025” value was 0.80.

As usually defined, the IC50 is the point on the concentration scale where inhibition reaches its midpoint. As usually defined, the CC50 is the concentration that lowers cell viability or growth by half. A high value points to better tolerance by the cells. Broadly, the EC50 is the concentration giving half of the maximal effect. Low readings indicate a more potent agent, high ones a less potent agent.

The values are drawn from US8501683B2, “Cycloundecadepsipeptide compounds and use of said compounds as a medicament” (priority 2008, dated 2013).
